By Km is commonly meant the concentration of substrate that gives half-maximal velocity.

Series [1] deals with GAL4/UAS-AncCoeae6g mosquitoes. The experiment in a line: WHO tube/adult bioassays.
For series [2], the system named is GAL4/UAS-AngCoeae6g mosquitoes. The experiment in a line: WHO tube/adult bioassays. Set-up: species or system Anopheles gambiae. The conditions noted are these: in vivo.
The target in series [3] is T1, recombinant An. coluzzii Coeae6g (Anopheles coluzzii, UniProt A0A6E8VQK1).
T1 sequence (A0A6E8VQK1 1-582): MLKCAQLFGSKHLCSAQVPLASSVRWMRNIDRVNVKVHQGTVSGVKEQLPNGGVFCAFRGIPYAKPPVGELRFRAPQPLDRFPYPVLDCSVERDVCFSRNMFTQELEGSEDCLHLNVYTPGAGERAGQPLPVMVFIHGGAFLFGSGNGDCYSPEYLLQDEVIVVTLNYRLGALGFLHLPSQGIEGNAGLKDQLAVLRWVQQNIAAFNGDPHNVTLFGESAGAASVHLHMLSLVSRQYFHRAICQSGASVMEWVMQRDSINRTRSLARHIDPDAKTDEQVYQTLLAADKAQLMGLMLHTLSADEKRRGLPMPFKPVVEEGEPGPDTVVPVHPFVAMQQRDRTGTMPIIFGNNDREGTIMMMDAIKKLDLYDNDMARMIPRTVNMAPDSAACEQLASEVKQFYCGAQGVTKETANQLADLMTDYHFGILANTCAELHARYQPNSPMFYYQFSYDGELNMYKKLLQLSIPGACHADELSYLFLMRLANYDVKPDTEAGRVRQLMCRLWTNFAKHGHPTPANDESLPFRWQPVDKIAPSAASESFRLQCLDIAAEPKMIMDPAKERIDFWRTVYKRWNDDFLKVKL
The series can be described thus: Insecticide inhibition of α-NA hydrolysis by recombinant Coeae6g. It counts as biochemical. Conditions: for IC50 (μΜ) (95% CI) of α-NA hydrolysis: 10 min pre-incubation, α-NA at Km, Sf9 homogenate expressing Coeae6g.

Series [4] has as its system active serine hydrolases (FP-reactive bands, ~62–70 kDa) in An. gambiae homogenates. In kind it is biochemical, Anopheles gambiae (Kisumu strain).
The target in series [5] is T1, recombinant An. coluzzii Coeae6g. It counts as biochemical. The conditions noted are these: for fold increased esterase activity compared to YFP-expressing and uninfected Sf9 cells: resuspended cell pellets expressing Coeae6g; for Km: read-out: Km (95% CI); for Km / Vmax (95% CI): substrate of recombinant Coeae6g (Sf9-Coeae6g).
Series [6] has as its system whole extracts of An. gambiae Coeae6g overexpressing mosquitoes. The experiment in a line: Total esterase activity of whole mosquito extracts towards model substrates. It counts as biochemical, Anopheles gambiae.
Series [7] relates to A11 parental line mosquitoes. The series can be described thus: WHO tube/adult bioassays. The conditions noted are these: exposure for 10 and 15 min, three replicates. It counts as in vivo, Anopheles gambiae.
For series [8], the system named is GAL4/UAS-AncCoeae6g mosquitoes. The conditions noted are these: in vivo.

Where two headings read alike, the source gives them in different places.

Regarding `CCN(CC)c1nc(C)cc(OP(=S)(OC)OC)n1` [PM, pirimiphos-methyl], the Mortality rate in series [1] (in vivo) came out at 79%. The compound further gave a Mortality rate in series [2] of 67%. Moreover, the “IC50 (μΜ) (95% CI) of α-NA hydrolysis” value in series [3] is “No inhibition”. Besides, in series [4], the “T-FP labelling of distinct ~90 kDa band” value is recorded as “not affected” and the “T-FP labelling of prominent bands at ~62–70 kDa” value is “markedly reduced”. In series [4] (read-out: IC₅₀ (FP-TAMRA labelled ~62–70 kDa band intensity)), the IC50 was approximately 10.6 µM.

`CCOC(=O)CC(SP(=O)(OC)OC)C(=O)OCC` (centres unmarked) [Malaoxon, malaoxon]: the IC50 in series [3] came out at 0.24 µM.

In the case of `CNC(=O)Oc1ccccc1OC(C)C` [Propoxur, propoxur], in series [3], the IC50 is 3.52 µM.

Consider `CC(=O)Oc1ccc([N+](=O)[O-])cc1` [p-NPA, p-nitrophenyl acetate], for which the “fold increased esterase activity compared to YFP-expressing and uninfected Sf9 cells” value (from here on “fold increased esterase activity”) in series [5] was 8-12 fold. For the same compound, in series [6], the “fold higher total carboxylesterase activity than control parental mosquitoes” value stood at 2.9 fold.

As for `CNC(=O)Oc1cccc2c1OC(C)(C)O2` [Bendiocarb, bendiocarb], the IC50 in series [3] was 7.27 µM.

For the compound `CCOC(=O)CC(SP(=S)(OC)OC)C(=O)OCC` (centres unmarked) [Malathion, malathion], in series [3], the IC50 is more than 45 µM and the “IC50 (μΜ) (95% CI) of α-NA hydrolysis” value was “No inhibition”.

As to `CC(=O)Oc1ccc2ccccc2c1` [β-NA, β-naphthyl acetate], in series [5], the Km is 369 µM; the “fold increased esterase activity” value is 8-12 fold; the “Vmax (95% CI)” value was 253.0 nmol min^−1 mg total protein^−1. Further, the “fold higher total carboxylesterase activity than control parental mosquitoes” value in series [6] worked out at 2.3 fold.

Take `CC(=O)Oc1cccc2ccccc12` [α-NA, α-naphthyl acetate]: in series [5], the Km turned out to be 68.5 µM; the “fold increased esterase activity” value was 8-12 fold; the “Vmax (95% CI)” value is 307.7 nmol min^−1 mg total protein^−1.

The compound `CC1(C)[C@H](C(=O)O[C@H](C#N)c2cccc(Oc3ccccc3)c2)[C@@H]1C=C(Br)Br` [Deltamethrin, deltamethrin] returned a Mortality in series [1] (exposure for 10 and 15 min, three replicates) of 100%. Further, in series [7], the Mortality is reported as 100%. In addition, in series [3], the IC50 was more than 450 µM and the “IC50 (μΜ) (95% CI) of α-NA hydrolysis” value is recorded as “no inhibition”.

In the case of `CC1(C)C(C=C(Cl)Cl)C1C(=O)OCc1cccc(Oc2ccccc2)c1` (centres unmarked) [Permethrin, permethrin], the Mortality rate in series [8] is reported as 81.8%. In addition, the IC50 in series [3] turned out to be 130 µM.
